According to patent US5690904A, “Diagnostic radiopharmaceutical compounds (That)” (priority 1995, dated 1997):

How the values were obtained:
[1] = technetium complex; cited from earlier work
[2] = technetium complex, monkey; cited from earlier work
[3] = Electrophoresis of 99mTc complexes (charge); format: physicochemical
Source text: After labelling, and if required, the resultant ^99m Tc chelate complexes can be purified by passing through a C-18 Sep Pak column.

[4] = Biodistribution of 99mTc labelled complexes in rats (Tc brain bioassay, Example 64, Table I); format: in vivo, Female Sprague-Dawley rats; details: rat, i.v. tail vein
Procedure: Distribution of the ^99m Tc labelled compounds was evaluated in rats. Female Sprague-Dawley rats weighing 140 to 220 g (average 170 g) were anaesthetised with sodium pentobarbital and were injected in a tail vein with 0.05 to 10mCi of the ^99m Tc labelled complex in a volume of 0.2 to 0.5 ml. At least two rats were injected for each time point.
The animals were sacrificed at 5 and 30 minutes post injection and selected organs were removed; the tails were discarded to avoid interference from the injection site. The radioactivity in each organ was measured at a standard geometry with a […] sodium iodide scintillation counter adjusted for the 140 KeV emission of ^99m Tc. The organs were also weighed to one hundredth of a gram and the activity was calculated as a percent of administered dose per gram. The important determinations are the amount of activity in the brain and the brain:blood ratio.

[5] = 0.1M NaH2PO4, pH 6.8, 250 volts, 25 min
[6] = 0.1M NaH2PO4, pH 6.8, 200 volts, 30 min
[7] = 0.05M NaH2PO4, pH 4.5, 300 volts, 30 min

SMILES | Brain % dose ([4]; 5 min post injection) [% dose] | Brain:blood ([4]; 5 min post injection) | Heart % dose ([4]; 5 min post injection) [% dose] | Heart:blood ([4]; 5 min post injection) | Brain % dose ([4]; 30 min post injection) [% dose] | Brain:blood ([4]; 30 min post injection) | Heart % dose ([4]; 30 min post injection) [% dose] | Heart:blood ([4]; 30 min post injection) | further results
CC(C)(S)CNCCNCC(C)(C)S [BAT] | – | – | – | – | – | – | – | – | brain uptake / crossing of blood-brain barrier [1]: can cross the blood-brain barrier (BBB); retention of brain activity [1]: fails to show retention
CCOC(=O)[C@H](CS)NCCN[C@@H](CS)C(=O)OCC [ECD] | – | – | – | – | – | – | – | – | brain retention [2]: retention; brain uptake [2]: good
C[SH]1C(C)(C)C(=O)[N]2CC[N]3c4ccccc4[S][Tc]231=[O] (stereo not shown) [Example T711] | 2.33 | 4.24 | 0.88 | 3.38 | 0.47 | 1.54 | 0.23 | 1.51 | Electrophoresis (charge) [3, 5]: neutral
C[SH]1c2ccccc2[N]2CC[N]3C(=O)C(C)(C)[S][Tc]321=[O] (stereo not shown) [Example T712, ^99m Tc complex of N[2-(((methyl-2-mercapto)propionyl)amino)ethyl]-2-methylthio aniline] | 1.69 | 1.04 | 0.61 | 1.07 | 1.73 | 1.13 | 0.53 | 0.74 | Electrophoresis (charge) ([3]; 0.05M NaH2PO4, pH 4.5, 3000 volts, 30 min): neutral
CCC[SH]1C(C)(C)C(=O)[N]2CC[N]3c4ccccc4[S][Tc]231=[O] (stereo not shown) [Example T713, ^99m Tc complex of N[2-(((2-methyl-2-propylthio)propionyl)amino)ethyl]-2-amino-thiophenol] | 1.55 | 4.34 | 0.59 | 3.68 | 0.46 | 1.83 | 0.19 | 1.84 | Electrophoresis (charge) [3, 5]: neutral
CCCC[SH]1C(C)(C)C(=O)[N]2CC[N]3c4ccccc4[S][Tc]231=[O] (stereo not shown) [Example T714, ^99m Tc complex of N[2-(((2-methyl-2-butylthio)propionyl)amino)ethyl]-2-amino-thiophenol] | 1.43 | 3.11 | 0.82 | 3.67 | 0.50 | 1.66 | 0.27 | 1.79 | –
CC[SH]1C(C)(C)C(=O)[N]2CC[N]3c4ccccc4[S][Tc]231=[O] (stereo not shown) [Example T715, ^99m Tc complex of N[2-(((2-methyl-2-ethylthio)propionyl)amino)ethyl]-2-amino-thioplhenol] | 2.55 | 5.19 | 0.84 | 3.73 | 0.51 | 1.36 | 0.23 | 1.40 | –
CCC[SH]1c2ccccc2[N]2CC[N]3C(=O)C(C)(C)[S][Tc]321=[O] (stereo not shown) [Example T717, ^99m Tc N[2-(((2-methyl-2-mercapto)propionyl)amino)ethyl]-2-propylthioaniline] | 1.27 | 1.21 | 0.98 | 1.88 | 1.24 | 1.23 | 0.48 | 1.00 | Electrophoresis (charge) [3, 6]: neutral
C=CC[SH]1C(C)(C)C(=O)[N]2CC[N]3c4ccccc4[S][Tc]231=[O] (stereo not shown) [Example T719, ^99m Tc complex of N[2-(((2-methyl-2-allylthio)propionyl)amino)ethyl]-2-(4-methoxybenzylthio)aniline] | 1.86 | – | 0.78 | – | 0.48 | – | 0.40 | – | Brain:blood ([4]; 5 min post injection, 5 min): 1.32; Heart:blood ([4]; 5 min post injection, 5 min): 1.36; Brain:blood ([4]; 30 min post injection, 30 min): 0.26; Heart:blood ([4]; 30 min post injection, 30 min): 0.55
C=CC[SH]1C(C)(C)C(=O)[N]2CC[N]3c4ccccc4[S][Tc]231=[O] (stereo not shown) [Example T721, ^99m Tc complex of N[2-(((-methyl-2-allylthio)propionyl)amino)ethyl]-2-aminothiopenol] | 1.82 | – | 0.75 | – | 0.30 | – | 0.36 | – | Electrophoresis (charge) [3, 6]: neutral; Brain:blood ([4]; 5 min post injection, 5 min): 1.23; Heart:blood ([4]; 5 min post injection, 5 min): 1.16; Brain:blood ([4]; 30 min post injection, 30 min): 0.21; Heart:blood ([4]; 30 min post injection, 30 min): 0.49
C#CC[SH]1C(C)(C)C(=O)[N]2CC[N]3c4ccccc4[S][Tc]231=[O] (stereo not shown) [Example T722, ^99m Tc complex of N[2-(((2-methyl-2-(2-propynylthio))propionyl)amino)ethyl]-2-(4-methoxybenzylthio)aniline] | 1.58 | 0.57 | 0.74 | 0.67 | 0.68 | 0.31 | 0.48 | 0.52 | –
CC1(C)C(=O)[N]2CC[N]3c4ccccc4[S][Tc]23(=[O])[SH]1CCO (stereo not shown) [Example T726, ^99m Tc complex of N[2-(((2-methyl-2-(2-hydroxyethylthio))propionyl)amino)ethyl]-2-(4-methoxybenzylthio) aniline] | 1.11 | 1.82 | 0.73 | 3.22 | 0.32 | 0.93 | 0.28 | 2.08 | Electrophoresis (charge) [3, 6]: neutral
COC(=O)C[SH]1C(C)(C)C(=O)[N]2CC[N]3c4ccccc4[S][Tc]231=[O] (stereo not shown) [Example T727, ^99m Tc complex of N[2-(((2-methyl-2-(methoxycarbonylmethylenethio))propionyl)amino)ethyl]-2-(4-methoxybenzylthio)aniline] | 0.09 | 0.09 | 0.45 | 1.26 | 0.07 | 0.06 | 0.18 | 0.42 | Electrophoresis (charge) ([3]; 0.05M NaH2PO4, pH 4.5, 300 volts, 35 min): neutral
CC1(C)C(=O)[N]2CC[N]3c4ccccc4[S][Tc]23(=[O])[SH]1CCCN (stereo not shown) [Example T728, ^99m Tc complex of N[2-(((2-methyl-2-(3-aminopropylthio))propionyl)amino)ethyl]-2-(4-methoxybenzylthio) aniline] | 0.03 | 0.04 | 1.68 | 4.36 | 0.03 | 0.05 | 0.74 | 2.11 | –
C[SH]1c2ccccc2[N]2CC(=O)[N]3CC(C)(C)[S][Tc]321=[O] (stereo not shown) [Example T729, ^99m Tc complex of N[2-oxo-2(N^1 ((2-methyl-2-mercapto)propyl)amino)ethyl]-2-methylthioaniline] | 0.87 | 0.19 | 0.70 | 0.34 | 0.21 | 0.08 | 0.28 | 0.36 | Electrophoresis (charge) [3, 7]: neutral
CC1(C)C(=O)[N]2CC[N]3c4ccccc4[S][Tc]23(=[O])[SH]1CCCl (stereo not shown) [Example T730, ^99m Tc complex of N[2-(((2-methyl-2-(2-chloroethylthio))propionyl)amino)ethyl]-2-(4-methoxybenzylthio)aniline] | 2.45 | 6.1 | 0.71 | 3.97 | 0.73 | 1.8 | 0.29 | 1.53 | Electrophoresis (charge) [3, 7]: neutral
CC1(C)C(=O)[N]2CC[N]3c4ccccc4[S][Tc]23(=[O])[SH]1CCC#N (stereo not shown) [Example T731, ^99m Tc complex of N[2-(((2-methyl-2-(2-cyanoethylthio))propionyl)amino)ethyl]-2-(4-methoxybenzylthio)aniline] | 1.49 | 0.42 | 1.01 | 0.68 | 0.60 | 0.21 | 0.58 | 0.42 | Electrophoresis (charge) [3, 7]: neutral
CC(C)(S)CNCc1ccccc1NCC(C)(C)S [U-BAT] | – | – | – | – | – | – | – | – | brain uptake / crossing of blood-brain barrier [1]: exhibit brain uptake; retention of brain activity [1]: no retention
